Reference: the NIST ThermoML archive (doi:10.1016/j.jct.2016.10.023)

Assay: xn = mol fraction of the nth substance listed
Details: Constant-volume piezometry

CCCCC [pentane] + CCCO
Details | mass density [kg/m3]
433.15 K, 35839 kPa, Liquid, x1 = 0.5 | 609.23
433.15 K, 36095 kPa, Liquid, x1 = 0.2 | 661.31
433.15 K, 41420 kPa, Liquid, x1 = 0.8 | 572.89
437.15 K, 2040 kPa, Gas, x1 = 0.8 | 58.65
438.15 K, 1323 kPa, Gas, x1 = 0.5 | 30.1
438.15 K, 2052 kPa, Gas, x1 = 0.8 | 58.65
438.15 K, 2515 kPa, Liquid, x1 = 0.5 | 509.1
440.15 K, 2121 kPa, Liquid, x1 = 0.2 | 584.41
443.15 K, 781 kPa, Gas, x1 = 0.5 | 15.58
443.15 K, 1062 kPa, Gas, x1 = 0.8 | 22.61
443.15 K, 1353 kPa, Gas, x1 = 0.5 | 30.1
443.15 K, 1529 kPa, Gas, x1 = 0.8 | 36.83
443.15 K, 2108 kPa, Gas, x1 = 0.8 | 58.64
443.15 K, 3419 kPa, Liquid, x1 = 0.2 | 584.3
443.15 K, 4067 kPa, Liquid, x1 = 0.5 | 508.96
443.15 K, 5776 kPa, Liquid, x1 = 0.5 | 521.85
443.15 K, 6119 kPa, Liquid, x1 = 0.8 | 468.84
443.15 K, 7864 kPa, Liquid, x1 = 0.2 | 598.01
443.15 K, 11620 kPa, Liquid, x1 = 0.8 | 498.47
443.15 K, 13293 kPa, Liquid, x1 = 0.5 | 550.88
443.15 K, 15549 kPa, Liquid, x1 = 0.2 | 617.55
443.15 K, 19116 kPa, Liquid, x1 = 0.8 | 523.16
443.15 K, 24271 kPa, Liquid, x1 = 0.5 | 577.21
443.15 K, 29321 kPa, Liquid, x1 = 0.2 | 638.71
443.15 K, 31113 kPa, Liquid, x1 = 0.5 | 589.73
443.15 K, 32587 kPa, Liquid, x1 = 0.8 | 550.89
443.15 K, 37375 kPa, Liquid, x1 = 0.5 | 600.38
443.15 K, 43094 kPa, Liquid, x1 = 0.2 | 660.83
446.15 K, 2393 kPa, Gas, x1 = 0.8 | 74.06
447.15 K, 1740 kPa, Gas, x1 = 0.5 | 40.63
448.15 K, 1748 kPa, Gas, x1 = 0.5 | 40.63
448.15 K, 2548 kPa, Liquid, x1 = 0.9 | 408.95
448.15 K, 2624 kPa, Liquid, x1 = 0.8 | 419.92
449.15 K, 2796 kPa, Liquid, x1 = 0.8 | 419.9
451.15 K, 2529 kPa, Gas, x1 = 0.9 | 83.67
452.15 K, 2545 kPa, Gas, x1 = 0.9 | 83.66
453.15 K, 804 kPa, Gas, x1 = 0.5 | 15.57
453.15 K, 1101 kPa, Gas, x1 = 0.8 | 22.6
453.15 K, 1255 kPa, Gas, x1 = 0.2 | 25.01
453.15 K, 1405 kPa, Gas, x1 = 0.5 | 30.08
453.15 K, 1584 kPa, Gas, x1 = 0.8 | 36.81
453.15 K, 1789 kPa, Gas, x1 = 0.5 | 40.62
453.15 K, 2048 kPa, Gas, x1 = 0.5 | 51.26
453.15 K, 2206 kPa, Gas, x1 = 0.8 | 58.61
453.15 K, 2494 kPa, Gas, x1 = 0.8 | 74.04
453.15 K, 2562 kPa, Gas, x1 = 0.9 | 83.66
453.15 K, 3375 kPa, Liquid, x1 = 0.9 | 408.84
453.15 K, 3511 kPa, Liquid, x1 = 0.8 | 419.81
453.15 K, 7204 kPa, Liquid, x1 = 0.5 | 508.66
453.15 K, 7807 kPa, Liquid, x1 = 0.2 | 583.93
453.15 K, 8728 kPa, Liquid, x1 = 0.8 | 468.58
453.15 K, 9366 kPa, Liquid, x1 = 0.5 | 521.54
453.15 K, 12785 kPa, Liquid, x1 = 0.2 | 597.62
453.15 K, 14688 kPa, Liquid, x1 = 0.8 | 498.18
453.15 K, 17282 kPa, Liquid, x1 = 0.5 | 550.54
453.15 K, 21030 kPa, Liquid, x1 = 0.2 | 617.14
453.15 K, 22882 kPa, Liquid, x1 = 0.8 | 522.84
453.15 K, 28840 kPa, Liquid, x1 = 0.5 | 576.84
453.15 K, 34516 kPa, Liquid, x1 = 0.2 | 638.29
453.15 K, 37125 kPa, Liquid, x1 = 0.8 | 550.54
455.15 K, 2058 kPa, Gas, x1 = 0.5 | 51.26
455.15 K, 2617 kPa, Liquid, x1 = 0.5 | 469.97
459.15 K, 2107 kPa, Liquid, x1 = 0.2 | 549.17
459.25 K, 2109 kPa, Liquid, x1 = 0.2 | 549.17
460.15 K, 2449 kPa, Liquid, x1 = 0.2 | 549.14
461.15 K, 3036 kPa, Gas, x1 = 0.8 | 106.72
463.15 K, 825 kPa, Gas, x1 = 0.5 | 15.56
463.15 K, 1134 kPa, Gas, x1 = 0.8 | 22.59
463.15 K, 1296 kPa, Gas, x1 = 0.2 | 25
463.15 K, 1450 kPa, Gas, x1 = 0.5 | 30.07
463.15 K, 1641 kPa, Gas, x1 = 0.8 | 36.79
463.15 K, 1866 kPa, Gas, x1 = 0.5 | 40.6
463.15 K, 2150 kPa, Gas, x1 = 0.5 | 51.24
463.15 K, 2308 kPa, Gas, x1 = 0.8 | 58.58
463.15 K, 2637 kPa, Gas, x1 = 0.8 | 74
463.15 K, 2727 kPa, Gas, x1 = 0.9 | 83.62
463.15 K, 3075 kPa, Liquid, x1 = 0.5 | 452.77
463.15 K, 3080 kPa, Gas, x1 = 0.8 | 106.71
463.15 K, 3117 kPa, Liquid, x1 = 0.9 | 355.23
463.15 K, 3523 kPa, Liquid, x1 = 0.2 | 549.04
463.15 K, 3571 kPa, Liquid, x1 = 0.5 | 459.88
463.15 K, 4516 kPa, Liquid, x1 = 0.5 | 469.76
463.15 K, 5048 kPa, Liquid, x1 = 0.9 | 408.62
463.15 K, 5052 kPa, Liquid, x1 = 0.9 | 408.62
463.15 K, 5310 kPa, Liquid, x1 = 0.8 | 419.58
463.15 K, 10451 kPa, Liquid, x1 = 0.5 | 508.36
463.15 K, 11344 kPa, Liquid, x1 = 0.8 | 468.31
463.15 K, 12276 kPa, Liquid, x1 = 0.2 | 583.56
463.15 K, 12696 kPa, Liquid, x1 = 0.5 | 521.23
463.15 K, 17686 kPa, Liquid, x1 = 0.2 | 597.23
463.15 K, 17835 kPa, Liquid, x1 = 0.8 | 497.88
463.15 K, 20989 kPa, Liquid, x1 = 0.5 | 550.21
463.15 K, 26488 kPa, Liquid, x1 = 0.2 | 616.73
463.15 K, 26685 kPa, Liquid, x1 = 0.8 | 522.53
463.15 K, 33534 kPa, Liquid, x1 = 0.5 | 576.47
463.15 K, 41577 kPa, Liquid, x1 = 0.8 | 550.2
463.15 K, 41859 kPa, Liquid, x1 = 0.2 | 637.82
464.15 K, 3225 kPa, Liquid, x1 = 0.9 | 355.21
465.15 K, 3139 kPa, Gas, x1 = 0.9 | 123.69
466.15 K, 3167 kPa, Gas, x1 = 0.9 | 123.69
468.15 K, 2722 kPa, Gas, x1 = 0.5 | 72.79
468.15 K, 3224 kPa, Gas, x1 = 0.9 | 123.67
468.15 K, 3337 kPa, Liquid, x1 = 0.5 | 442.3
468.15 K, 3480 kPa, Liquid, x1 = 0.8 | 346.36
468.15 K, 3796 kPa, Liquid, x1 = 0.8 | 362.98
469.15 K, 3297 kPa, Gas, x1 = 0.9 | 134.47
469.15 K, 3585 kPa, Liquid, x1 = 0.8 | 346.34
470.15 K, 2757 kPa, Gas, x1 = 0.5 | 72.78
470.15 K, 3441 kPa, Liquid, x1 = 0.9 | 310.06
470.15 K, 3577 kPa, Liquid, x1 = 0.9 | 332
473.15 K, 846 kPa, Gas, x1 = 0.5 | 15.56
473.15 K, 1166 kPa, Gas, x1 = 0.8 | 22.58
473.15 K, 1339 kPa, Gas, x1 = 0.2 | 24.99
473.15 K, 1500 kPa, Gas, x1 = 0.5 | 30.05
473.15 K, 1696 kPa, Gas, x1 = 0.8 | 36.78
473.15 K, 1943 kPa, Gas, x1 = 0.5 | 40.58
473.15 K, 2238 kPa, Gas, x1 = 0.5 | 51.21
473.15 K, 2408 kPa, Gas, x1 = 0.8 | 58.55
473.15 K, 2703 kPa, Gas, x1 = 0.5 | 67.68
473.15 K, 2775 kPa, Gas, x1 = 0.8 | 73.97
473.15 K, 2808 kPa, Gas, x1 = 0.5 | 72.77
473.15 K, 2888 kPa, Gas, x1 = 0.9 | 83.58
473.15 K, 3309 kPa, Gas, x1 = 0.8 | 106.65
473.15 K, 3339 kPa, Liquid, x1 = 0.5 | 418.35
473.15 K, 3349 kPa, Gas, x1 = 0.9 | 123.64
473.15 K, 3414 kPa, Gas, x1 = 0.9 | 134.44
473.15 K, 3511 kPa, Gas, x1 = 0.9 | 164.35
473.15 K, 3553 kPa, Gas, x1 = 0.9 | 189.91
473.15 K, 3564 kPa, Gas, x1 = 0.9 | 202.87

Liquid
Details | mass density [kg/m3]
438.95 K, x1 = 0.2 | 584.46
446.85 K, x1 = 0.8 | 419.95
447.55 K, x1 = 0.9 | 408.96
454.85 K, x1 = 0.5 | 469.97
458.15 K, x1 = 0.2 | 549.2
462.15 K, x1 = 0.5 | 452.82
462.85 K, x1 = 0.9 | 355.24
463.55 K, x1 = 0.8 | 363.07
466.15 K, x1 = 0.5 | 442.34
467.15 K, x1 = 0.8 | 346.37
467.15 K, x1 = 0.9 | 334.99
470.15 K, x1 = 0.8 | 334.76
470.15 K, x1 = 0.9 | 313.16
470.85 K, x1 = 0.9 | 302.48
471.25 K, x1 = 0.9 | 282.74
471.95 K, x1 = 0.9 | 244.86
472.05 K, x1 = 0.9 | 241.54
472.15 K, x1 = 0.9 | 237.12
472.65 K, x1 = 0.8 | 316.17
